Columns and labels:
[1] = system: hair in the frontoparietal area of the head; test: observation on hair growth promoting activity on oral bimatoprost; assay type: in vivo, human; conditions: healthy person
Excerpt: (§1) A healthy subject with normal blood pressure volunteers to take the medicine for observation on hair growth promoting activity at the same dose reported in Example 1. Before taking the medicine they have few hairs left in the frontoparietal area of the head. Three months after taking the medicine, they begin to note an increase of hair density in the affected area. […] The response to the medicine is more sensitive in areas with most recent hair loss. […] The observation is terminated at the end of six months.

[2] = system: eyelashes; conditions: Lumigan ophthalmic solution applied in the FDA approved manner; cited from earlier work
[3] = untoward effects during the observation period; assay type: in vivo, human; conditions: healthy person, oral, same dose as Example 1
Excerpt: as §1
A healthy person with normal blood pressure volunteers to take the medicine for the same observation as in Example 2 at the dose described above. Their hair condition is normal with no baldness. During the six month testing period, they collect in intervals the hair samples from regular daily combing. Before the testing and during the first month of testing, the hair samples collected have two types, namely completely dark brown or completely gray. At around 50 days into the testing period, a new type of hair, partly dark brown and partly gray, begins to appear in the hair samples; they represent about 3% of the gray hairs. In this subject, the gray hairs represent about 25% of their total hairs in the samples collected. It is noted that the dark brown part of the new type of hair is always associated with the lower part of the hair shaft. […]

[4] = system: gray hair; test: conversion of gray hair to original pigment on oral bimatoprost in human subjects; assay type: in vivo
Excerpt: A patient began taking bimatoprost as a tablet. […] A healthy person with normal blood pressure volunteers to take the medicine for the same observation as in Example 2 at the dose described above. Their hair condition is normal with no baldness. During the six month testing period, they collect in intervals the hair samples from regular daily combing. Before the testing and during the first month of testing, the hair samples collected have two types, namely completely dark brown or completely gray. At around 50 days into the testing period, a new type of hair, partly dark brown and partly gray, begins to appear in the hair samples; they represent about 3% of the gray hairs. In this subject, the gray hairs represent about 25% of their total hairs in the samples collected. It is noted that the dark brown part of the new type of hair is always associated with the lower part of the hair shaft. This is easily identifiable because the hair follicles are distinguishable at one end of hair shafts. The quality and thickness of the new type of hair is very similar to the other types of hairs of this subject. The ratio of length of the dark brown part to that of the gray part of the new type of hair varies from 1:5 to 4:1 in the samples collected during the five-month period. This varying ratio may reflect the stages of the growth cycle of each hair follicle examined. The observation was discontinued at the end of five months.

untoward effects ([3]; observation discontinued at five months): No untoward effects were reported
untoward effects ([3]; six months observation): does not experience any untoward effects
SMILES: CCNC(=O)CCC/C=C\C[C@@H]1[C@@H](/C=C/[C@@H](O)CCc2ccccc2)[C@H](O)C[C@@H]1O [bimatoprost, cyclopentane N-ethyl heptanamide-5-cis-2-(3α-hydroxy-5-phenyl-1-trans-pentenyl)-3,5-dihydroxy, [1α,2β,3α,5α]]
time until increase of hair density in the affected area is noted ([1]; few hairs in frontoparietal area, same dose as Example 1): Three
colour of the newly grown hairs in the affected area ([1]; same dose as Example 1): mostly dark brown
overall increase of the hair density in the affected area ([1]; same dose as Example 1, six months): very significant
hair cut frequency ([1]; same dose as Example 1, three to six months of the testing period): increase the hair cut frequency to once a month from once every two months
growth of eyelashes [2]: effective to increase the growth of eyelashes
time until new type of hair, partly dark brown and partly gray, appears in hair samples ([4]; healthy person, no baldness, oral, same dose as Example 1, hair samples from daily combing): around 50 days
new type of hair (partly dark brown, partly gray) as share of the gray hairs ([4]; healthy person, oral, same dose as Example 1, gray hairs about 25% of total hairs): about 3%
gray hairs turned into the original pigment ([4]; patient, oral tablet 2 x 100 mg per dose, 3 doses per day, four months): a significant portion of their gray hairs had gradually turned into the original pigment or dark brown color
